These results are taken from ChEMBL document CHEMBL1136821, “Modelling of carbonic anhydrase inhibitory activity of sulfonamides using molecular negentropy” (Bioorg Med Chem Lett, 2003).

The target of one test is Carbonic anhydrase 2 (Homo sapiens, UniProt P00918). Briefly: Inhibition of human carbonic anhydrase II (CAII).
A further test concerns the target Carbonic anhydrase 1 (Homo sapiens, UniProt P00915). Briefly: Inhibition of human carbonic anhydrase I (CAI).
The next test concerns the target T1, Carbonic anhydrase 4 (Bos taurus, UniProt Q95323).
T1 sequence (Q95323 whole entry): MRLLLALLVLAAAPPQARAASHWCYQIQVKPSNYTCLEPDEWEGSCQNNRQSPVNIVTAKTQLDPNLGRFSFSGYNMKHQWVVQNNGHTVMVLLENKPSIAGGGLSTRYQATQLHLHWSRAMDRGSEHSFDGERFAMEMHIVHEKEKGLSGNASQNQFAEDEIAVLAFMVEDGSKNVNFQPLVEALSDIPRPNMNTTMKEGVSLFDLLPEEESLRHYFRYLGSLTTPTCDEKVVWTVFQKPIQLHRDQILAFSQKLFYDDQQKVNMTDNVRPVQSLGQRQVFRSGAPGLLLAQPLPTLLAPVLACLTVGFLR
Briefly: Inhibition of bovine carbonic anhydrase IV (CAIV).

Chain of Carbonic anhydrase 1 (P00915 whole entry): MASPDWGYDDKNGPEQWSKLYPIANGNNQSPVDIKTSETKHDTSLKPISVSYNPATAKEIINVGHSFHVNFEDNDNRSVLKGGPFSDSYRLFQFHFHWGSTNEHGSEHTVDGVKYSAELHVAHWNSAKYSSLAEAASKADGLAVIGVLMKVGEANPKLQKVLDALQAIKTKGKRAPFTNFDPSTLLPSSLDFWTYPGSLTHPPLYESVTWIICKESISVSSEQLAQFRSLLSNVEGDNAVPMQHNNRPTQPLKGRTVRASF

Take `NS(=O)(=O)c1ccc(C(=O)c2cccc(C(=O)O)n2)c(Cl)c1`: the results for the inhibitory constant (Ki) at Carbonic anhydrase 2, at Carbonic anhydrase 1 and on Carbonic anhydrase 4 were 44 nM, 620 nM and 79 nM, respectively.
For `NS(=O)(=O)c1cccc(C(=O)c2cccc(C(=O)O)n2)c1`, in that order: 250 nM, 20000 nM and 305 nM.
For `NS(=O)(=O)c1cc(S(N)(=O)=O)c(C(=O)c2cccc(C(=O)O)n2)cc1Cl`, in that order: 8.99 nM, 600 nM and 60 nM.
`NS(=O)(=O)c1ccc(C(=O)c2cccc(C(=O)O)n2)c(Br)c1`: the figures for the Ki at Carbonic anhydrase 1 and on Carbonic anhydrase 4 were 605 nM and 75 nM, respectively.
Take `NS(=O)(=O)c1cc(S(N)(=O)=O)c(NC(=O)c2cccc(C(=O)O)n2)c(Cl)c1NC(=O)c1cccc(C(=O)O)n1`: the inhibition constant (Ki) was 10 nM on Carbonic anhydrase 2, 450 nM on Carbonic anhydrase 1 and 55 nM on Carbonic anhydrase 4.
In the same order, the values of `NS(=O)(=O)c1ccccc1C(=O)c1cccc(C(=O)O)n1` are 280 nM, 21000 nM and 310 nM.
In the same order, the values of `NS(=O)(=O)c1cc(S(N)(=O)=O)c(C(=O)c2cccc(C(=O)O)n2)c(Cl)c1C(=O)c1cccc(C(=O)O)n1` are 12 nM, 500 nM and 69 nM.
In the same order, the values of `NS(=O)(=O)c1ccc(C(=O)c2cccc(C(=O)O)n2)c(F)c1` are 10 nM, 540 nM and 46 nM.
For `NS(=O)(=O)c1ccc(C(=O)c2cccc(C(=O)O)n2)c(I)c1`, the Ki on Carbonic anhydrase 2 was 33 nM; at Carbonic anhydrase 1 it was 610 nM; on Carbonic anhydrase 4, 70 nM.
In the same order, the values of `NS(=O)(=O)c1ccc(CCC(=O)c2cccc(C(=O)O)n2)cc1` are 8.99 nM, 906 nM and 54 nM.
In the case of `NS(=O)(=O)c1ccc(NC(=O)c2cccc(C(=O)O)n2)cc1`, the inhibitory constant (Ki) was 21500 nM on Carbonic anhydrase 1 and 300 nM on Carbonic anhydrase 4.
For `Nc1c(S(N)(=O)=O)cc(S(N)(=O)=O)c(N)c1Cl`, in that order: 6100 nM and 175 nM.
Take `NS(=O)(=O)c1ccc(CON2C(=O)c3cccnc3C2=O)cc1`: the Ki is 20 nM on Carbonic anhydrase 2, 2040 nM at Carbonic anhydrase 1 and 120 nM at Carbonic anhydrase 4.
In the same order, the values of `NS(=O)(=O)c1ccc(CCON2C(=O)c3cccnc3C2=O)cc1` are 15 nM, 2000 nM and 105 nM.
Compound `NS(=O)(=O)c1ccc(CC(=O)c2cccc(C(=O)O)n2)cc1` gave a Ki on Carbonic anhydrase 4 of 79 nM. In other words, the double-digit nanomolar range.
Take `NS(=O)(=O)c1ccc(C(=O)c2cccc(C(=O)O)n2)cc1`: the Ki at Carbonic anhydrase 2 is 132 nM; on Carbonic anhydrase 1, 15500 nM; at Carbonic anhydrase 4, 170 nM.
